Each compound was assayed against Cezanne 1 (Homo sapiens (Human), UniProt Q6GQQ9) (assay: Cezanne 1 biochemical IC50 assay). Settings: FLAG-Cezanne 1 purified from HEK293T cells; fluorescence polarisation, TAMRA labelled peptide linked to ubiquitin; 30 min preincubation, 2 hr read; read-out: IC50 range.
Procedure: The Cezanne 1 construct was PCR amplified and cloned into a pFLAG-CMV-6c vector (Sigma-Aldrich) with an N-terminal FLAG tag. HEK293T cells were transfected with FLAG-Cezanne 1 using TransIT-LT1 transfection reagent (Mirus) according to the manufacturer's instructions. Cells were harvested 48 hours after transfection. Cells were washed once with PBS and scraped in lysis buffer (50 mM Tris, pH 7.5, 150 mM NaCl, 3 mM EDTA, 0.5% NP40, 10% glycerol, 5 mM beta-mercaptoethanol, protease inhibitors (complete mini, Roche) and phosphatase inhibitors (PhosSTOP mini, Roche). Lysates were incubated for 30 min on ice and centrifuged at 4000 rpm for 10 min at 4° C. Soluble supernatant was added to FLAG affinity resin (EZview Red ANTI-FLAG M2 affinity gel, Sigma-Aldrich) equilibrated in low salt buffer (20 mM Tris, pH 7.5, 150 mM NaCl, 0.5 mM EDTA, 5 mM beta-mercaptoethanol) and incubated at 4° C. for 3 hours rotating. The resin was spun at 2000 rpm for 2 min and the supernatant was removed. The resin was washed two times with low salt buffer and one time with high salt buffer (20 mM Tris, pH 7.5, 500 mM NaCl, 0.5 mM EDTA, 5 mM beta-mercaptoethanol, protease inhibitors (complete mini, Roche) and phosphatase inhibitors (PhosSTOP mini, Roche). To elute the bound Cezanne 1, elution buffer (10 mM Tris, pH 7.5, 150 mM NaCl, 0.5 mM EDTA, 10% glycerol, 0.5% NP40, 5 mM beta-mercaptoethanol, 0.15 mg/ml 3× FLAG peptide (Sigma-Aldrich)) was added to the resin and incubated at 4° C. for 2.5 hours while rotating. The resin was centrifuged at 4000 rpm for 30 seconds, and the supernatant containing purified FLAG-Cezanne 1 was removed and stored at −80° C.
Dilution plates were prepared at 21 times the final concentration (2100 μM for a final concentration of 100 μM) in 50% DMSO in a 96-well polypropylene V-bottom plate (Greiner #651201). A typical 8-point dilution series to be 100, 30, 10, 3, 1, 0.3, 0.1, […]. Reactions were performed in duplicate in black 384 well plates (small volume, Greiner 784076) in a final reaction volume of 21 μl. Either 1 μl of 50% DMSO or diluted compound was added to the plate. Cezanne 1 was diluted in reaction buffer (40 mM Tris, pH 7.5, 0.005% Tween 20, 0.5 mg/ml BSA, 5 mM—beta-mercaptoethanol) to the equivalent of 0.005 μl/well and 10 μl of diluted Cezanne 1 was added to the compound. Enzyme and compound were incubated for 30 min at room temp. Reactions were initiated by the addition of 50 nM of TAMRA labelled peptide linked to ubiquitin via an iso-peptide bond as fluorescence polarisation substrate. Reactions were read immediately after addition of substrate and following a 2 hr incubation at room temperature. Readings were performed on a Pherastar Plus (BMG Labtech). λ Excitation 540 nm; λ Emission 590 nm.

Sequence of Cezanne 1 (Q6GQQ9 whole entry): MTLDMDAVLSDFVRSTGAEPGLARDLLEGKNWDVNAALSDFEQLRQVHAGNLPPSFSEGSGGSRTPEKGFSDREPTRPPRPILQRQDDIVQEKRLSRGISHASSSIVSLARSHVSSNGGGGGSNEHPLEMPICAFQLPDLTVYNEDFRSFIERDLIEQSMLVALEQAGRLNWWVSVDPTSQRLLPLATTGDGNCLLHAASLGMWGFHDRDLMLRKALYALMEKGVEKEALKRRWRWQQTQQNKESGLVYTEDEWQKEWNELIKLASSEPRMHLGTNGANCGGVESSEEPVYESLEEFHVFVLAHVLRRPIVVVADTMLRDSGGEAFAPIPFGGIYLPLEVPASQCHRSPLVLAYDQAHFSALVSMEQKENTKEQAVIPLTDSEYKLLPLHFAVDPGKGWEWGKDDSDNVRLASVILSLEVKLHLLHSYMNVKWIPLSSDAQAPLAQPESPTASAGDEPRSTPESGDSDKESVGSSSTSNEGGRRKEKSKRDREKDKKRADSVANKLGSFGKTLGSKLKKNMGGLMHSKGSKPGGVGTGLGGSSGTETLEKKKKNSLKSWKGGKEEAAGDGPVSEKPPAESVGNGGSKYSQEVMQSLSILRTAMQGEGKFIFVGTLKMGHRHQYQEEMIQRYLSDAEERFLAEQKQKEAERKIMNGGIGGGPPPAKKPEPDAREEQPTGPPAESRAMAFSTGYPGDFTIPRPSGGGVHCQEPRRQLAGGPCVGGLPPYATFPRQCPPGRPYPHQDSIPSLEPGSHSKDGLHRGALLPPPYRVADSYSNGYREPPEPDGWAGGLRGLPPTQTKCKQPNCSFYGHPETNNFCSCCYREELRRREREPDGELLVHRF

Compound	IC50 [nM]
N#CN1CC[C@](F)(C(=O)Nc2cnn(Cc3ccccc3)c2)C1 [Example 15, (R)—N-(1-benzyl-1H-pyrazol-4-yl)-1-cyano-3-fluoropyrrolidine-3-carboxamide]	1000 to 10000
N#CN1CCC(F)(C(=O)Nc2cn(-c3ccccc3)cn2)C1 (stereo not shown) [Example 11, 1-cyano-3-fluoro-N-(1-phenyl-1H-imidazol-4-yl)pyrrolidine-3-carboxamide]	1000 to 10000
N#CN1CCC(F)(C(=O)Nc2ccc(Cl)c(C(F)(F)F)c2)C1 (stereo not shown) [Example 1, N-(4-chloro-3-(trifluoromethyl)phenyl)-1-cyano-3-fluoropyrrolidine-3-carboxamide]	1000 to 10000
N#CN1CCC(F)(C(=O)Nc2cnc3ccccc3c2)C1 (stereo not shown) [Example 4, 1-cyano-3-fluoro-N-(quinolin-3-yl)pyrrolidine-3-carboxamide]	1000 to 10000
N#CN1CCC(F)(C(=O)Nc2ncc(-c3ccccc3)s2)C1 (stereo not shown) [Example 8, 1-cyano-3-fluoro-N-(5-phenylthiazol-2-yl) pyrrolidine-3-carboxamide]	100 to 1000
N#CN1CCC(F)(C(=O)Nc2ccc3ncccc3c2)C1 (stereo not shown) [Example 5, 1-cyano-3-fluoro-N-(quinolin-6-yl)pyrrolidine-3-carboxamide]	1000 to 10000
Cc1nc(-c2cccc(NC(=O)C3(F)CCN(C#N)C3)c2)cs1 (stereo not shown) [Example 6, 1-cyano-3-fluoro-N-(3-(2-methylthiazol-4-yl)phenyl)pyrrolidine-3-carboxamide]	1000 to 10000
N#CN1CCC(F)(C(=O)Nc2nc3ccc(-c4cn[nH]c4)cc3s2)C1 (stereo not shown) [Example 16, N-(6-(1H-pyrazol-4-yl)benzo[d]thiazol-2-yl)-1-cyano-3-fluoropyrrolidine-3-carboxamide]	1000 to 10000
CNC(=O)c1cccc(-c2ccc3nc(NC(=O)C4(F)CCN(C#N)C4)sc3c2)c1 (stereo not shown) [Example 29, 1-cyano-3-fluoro-N-(6-(3-(methylcarbamoyl)phenyl)benzo[d]thiazol-2-yl)pyrrolidine-3-carboxamide]	1000 to 10000
N#CN1CCC(F)(C(=O)Nc2cc(-c3ccccc3)no2)C1 (stereo not shown) [Example 20, 1-cyano-3-fluoro-N-(3-phenylisoxazol-5-yl)pyrrolidine-3-carboxamide]	100 to 1000
N#CN1CCC(F)(C(=O)Nc2ncc(-c3cccc4[nH]ncc34)s2)C1 (stereo not shown) [Example 18, N-(5-(1H-indazol-4-yl)thiazol-2-yl)-1-cyano-3-fluoropyrrolidine-3-carboxamide]	100 to 1000
N#CN1CCC(F)(C(=O)Nc2cccc(Oc3ccccc3)c2)C1 (stereo not shown) [Example 7, 1-cyano-3-fluoro-N-(3-phenoxyphenyl)pyrrolidine-3-carboxamide]	1000 to 10000
N#CN1CCC(F)(C(=O)Nc2nc3ccc(-c4ccccc4)cc3s2)C1 (stereo not shown) [Example 17, 1-cyano-3-fluoro-N-(6-phenylbenzo[d]thiazol-2-yl)pyrrolidine-3-carboxamide]	1000 to 10000
N#Cc1ccc(-n2cnc(NC(=O)[C@@]3(F)CCN(C#N)C3)c2)cc1 [Example 14, (R)-1-cyano-N-(1-(4-cyanophenyl)-1H-imidazol-4-yl)-3-fluoropyrrolidine-3-carboxamide]	1000 to 10000
N#CN1CCC(F)(C(=O)Nc2nc(-c3ccccc3)cs2)C1 (stereo not shown) [Example 2, 1-cyano-3-fluoro-N-(4-phenylthiazol-2-yl)pyrrolidine-3-carboxamide]	1000 to 10000
N#CN1CCC(F)(C(=O)Nc2ccc3ncsc3c2)C1 (stereo not shown) [Example 3, N-(benzo[d]thiazol-6-yl)-1-cyano-3-fluoropyrrolidine-3-carboxamide]	100 to 1000
N#CN1CC[C@@](F)(C(=O)Nc2cnn(-c3ccccc3)c2)C1 [Example 12, (S)-1-cyano-3-fluoro-N-(1-phenyl-1H-pyrazol-4-yl)pyrrolidine-3-carboxamide]	1000 to 10000

The next lines start with the values.

IC50 [nM]	Compound
100 to 1000	CNC(=O)c1cccc(-c2cnc(NC(=O)C3(F)CCN(C#N)C3)s2)c1 (stereo not shown) [Example 23, 1-cyano-3-fluoro-N-(5-(3-(methylcarbamoyl)phenyl)thiazol-2-yl)pyrrolidine-3-carboxamide]
100 to 1000	N#CN1CCC(F)(C(=O)Nc2cn3cc(-c4ccn[nH]4)ccc3n2)C1 (stereo not shown) [Example 28, N-(6-(1H-pyrazol-5-yl)imidazo[1,2-a]pyridin-2-yl)-1-cyano-3-fluoropyrrolidine-3-carboxamide]
100 to 1000	N#CN1CC[C@](F)(C(=O)Nc2cc(-c3ccccc3)no2)C1 [Example 21, (R)-1-cyano-3-fluoro-N-(3-phenylisoxazol-5-yl)pyrrolidine-3-carboxamide]
100 to 1000	CNC(=O)c1cccc(-c2cnc(NC(=O)[C@@]3(F)CCN(C#N)C3)s2)c1 [Example 24, (R)-1-cyano-3-fluoro-N-(5-(3-(methylcarbamoyl)phenyl)thiazol-2-yl)pyrrolidine-3-carboxamide]
100 to 1000	N#CN1CCC(F)(C(=O)Nc2ncc(-c3cccc(C(N)=O)c3)s2)C1 (stereo not shown) [Example 22, N-(5-(3-carbamoylphenyl)thiazol-2-yl)-1-cyano-3-fluoropyrrolidine-3-carboxamide]
100 to 1000	N#CN1CCC(F)(C(=O)Nc2cc(-c3cccc(-n4ccnc4)c3)no2)C1 (stereo not shown) [Example 26, N-(3-(3-(1H-imidazol-1-yl)phenyl)isoxazol-5-yl)-1-cyano-3-fluoropyrrolidine-3-carboxamide]
100 to 1000	N#CN1CC[C@](F)(C(=O)Nc2cc(-c3cccc(-n4ccnc4)c3)no2)C1 [Example 27, (R)—N-(3-(3-(1H-imidazol-1-yl)phenyl)isoxazol-5-yl)-1-cyano-3-fluoropyrrolidine-3-carboxamide]
100 to 1000	N#CN1CCC(F)(C(=O)Nc2cc(-c3ccccc3)on2)C1 (stereo not shown) [Example 10, 1-cyano-3-fluoro-N-(5-phenylisoxazol-3-yl)pyrrolidine-3-carboxamide]
100 to 1000	N#CN1CCC(F)(C(=O)Nc2ncc(-c3cccc(-n4ccnc4)c3)s2)C1 (stereo not shown) [Example 25, N-(5-(3-(1H-imidazol-1-yl)phenyl)thiazol-2-yl)-1-cyano-3-fluoropyrrolidine-3-carboxamide]
100 to 1000	N#CN1CC[C@](F)(C(=O)Nc2ncc(-c3ccccc3)s2)C1 [Example 9, (R)-1-cyano-3-fluoro-N-(5-phenylthiazol-2-yl) pyrrolidine-3-carboxamide]
< 100	N#CN1CC[C@](F)(C(=O)Nc2cnn(-c3ccccc3)c2)C1 [Example 13, (R)-1-cyano-3-fluoro-N-(1-phenyl-1H-pyrazol-4-yl)pyrrolidine-3-carboxamide]

— patent US10590075B2, “Cyanopyrrolidine derivatives as inhibitors for DUBs” (Mission Therapeutics Limited, priority 2015, dated 2020)
